# According to patent US12084459B2, “2-(4-{1-[6-(4-isopropyl-phenyl)-imidazo[2,1-b][1,3,4]thiadiazol-2-yl]-piperidin-4-ylmethyl}-piperazin-1-yl)-ethanol and use thereof” (Urifer Ltd., priority 2020, dated 2024):
# Experiment: toxicity in mice: body weight and observations after IP administration
# Assay type: in vivo
# Conditions: for body weight / body weight change (% wt/wt): male mice
# How it was run: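 Mice (female where stated) received the test compound intraperitoneally on day 1, dissolved in 20% hydroxypropylcyclodextrane at an administration volume of 10 ml/kg. Toxicity was assessed from body weight, body weight change (% wt/wt) and observations of the animals after administration.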
smiles,measurement,setting,value
"CC(C)c1ccc(-c2cn3nc(N4CCC(CN5CCN(CCO)CC5)CC4)sc3n2)cc1 [Compound E266, 2-(4-{1-[6-(4-isopropyl-phenyl)-imidazo[2,1-b][1,3,4]thiadiazol-2-yl]-piperidin-4-ylmethyl}-piperazin-1-yl)-ethanol]",body weight,"100 mg/kg IP, day 1",37.4 g
same,body weight change (% wt/wt),"100 mg/kg IP, day 1",0%
same,body weight,"100 mg/kg IP, day 2",38.2 g
same,body weight change (% wt/wt),"100 mg/kg IP, day 2",2.1%
same,body weight,"100 mg/kg IP, day 3",38 g
same,body weight change (% wt/wt),"100 mg/kg IP, day 3",1.6%
same,body weight,"100 mg/kg IP, day 4",37.3 g
same,body weight change (% wt/wt),"100 mg/kg IP, day 4",−0.3%
same,body weight,"100 mg/kg IP, day 5",37.9 g
same,body weight change (% wt/wt),"100 mg/kg IP, day 5",1.3%
same,body weight,"100 mg/kg IP, day 6",37.5 g
same,body weight change (% wt/wt),"100 mg/kg IP, day 6",0.3%
same,body weight,"100 mg/kg IP, day 7",37.4 g
same,body weight change (% wt/wt),"100 mg/kg IP, day 7",0.0%
same,body weight,"100 mg/kg IP, day 8",37.5 g
same,body weight change (% wt/wt),"100 mg/kg IP, day 8",0.3%
same,body weight,"100 mg/kg IP, day 9",36.8 g
same,body weight change (% wt/wt),"100 mg/kg IP, day 9",−1.6%
same,body weight,"100 mg/kg IP, day 10",37.2 g
same,body weight change (% wt/wt),"100 mg/kg IP, day 10",−0.5%
same,body weight,"100 mg/kg IP, day 11",37.3 g
same,body weight change (% wt/wt),"100 mg/kg IP, day 11",−0.3%
same,body weight,"100 mg/kg IP, day 12",37.3 g
same,body weight change (% wt/wt),"100 mg/kg IP, day 12",−0.3%
same,body weight,"100 mg/kg IP, day 13",37.7 g
same,body weight change (% wt/wt),"100 mg/kg IP, day 13",0.8%
same,body weight,"100 mg/kg IP, day 14",38.1 g
same,body weight change (% wt/wt),"100 mg/kg IP, day 14",1.9%
same,body weight,"100 mg/kg IP, day 15",36.6 g
same,body weight change (% wt/wt),"100 mg/kg IP, day 15",−2.1%
same,body weight,"200 mg/kg IP, day 1",37.8 g
same,body weight change (% wt/wt),"200 mg/kg IP, day 1",0%
same,body weight,"200 mg/kg IP, day 2",38.1 g
same,body weight change (% wt/wt),"200 mg/kg IP, day 2",0.8%
same,body weight,"200 mg/kg IP, day 3",38.2 g
same,body weight change (% wt/wt),"200 mg/kg IP, day 3",1.1%
same,body weight,"200 mg/kg IP, day 4",38.3 g
same,body weight change (% wt/wt),"200 mg/kg IP, day 4",1.3%
same,body weight,"200 mg/kg IP, day 5",37.6 g
same,body weight change (% wt/wt),"200 mg/kg IP, day 5",−0.5%
same,body weight,"200 mg/kg IP, day 6",38 g
same,body weight change (% wt/wt),"200 mg/kg IP, day 6",0.5%
same,body weight,"200 mg/kg IP, day 7",39.2 g
same,body weight change (% wt/wt),"200 mg/kg IP, day 7",3.7%
same,body weight,"200 mg/kg IP, day 8",39.7 g
same,body weight change (% wt/wt),"200 mg/kg IP, day 8",5.0%
same,body weight,"200 mg/kg IP, day 9",38 g
same,body weight change (% wt/wt),"200 mg/kg IP, day 9",0.5%
same,body weight,"200 mg/kg IP, day 10",37.9 g
same,body weight change (% wt/wt),"200 mg/kg IP, day 10",0.3%
same,body weight,"200 mg/kg IP, day 11",38.2 g
same,body weight change (% wt/wt),"200 mg/kg IP, day 11",1.1%
same,body weight,"200 mg/kg IP, day 12",38.7 g
same,body weight change (% wt/wt),"200 mg/kg IP, day 12",2.4%
same,body weight,"200 mg/kg IP, day 13",37.9 g
same,body weight change (% wt/wt),"200 mg/kg IP, day 13",0.3%
same,body weight,"200 mg/kg IP, day 14",38.8 g
same,body weight change (% wt/wt),"200 mg/kg IP, day 14",2.6%
same,body weight,"200 mg/kg IP, day 15",37.6 g
same,body weight change (% wt/wt),"200 mg/kg IP, day 15",−0.5%
same,body weight,"400 mg/kg IP, day 1",40.3 g
same,body weight change (% wt/wt),"400 mg/kg IP, day 1",0%
same,body weight,"400 mg/kg IP, day 2",40 g
same,body weight change (% wt/wt),"400 mg/kg IP, day 2",−.07%
same,body weight,"400 mg/kg IP, day 3",41.3 g
same,body weight change (% wt/wt),"400 mg/kg IP, day 3",2.5%
same,body weight,"400 mg/kg IP, day 4",40.8 g
same,body weight change (% wt/wt),"400 mg/kg IP, day 4",1.2%
same,body weight,"400 mg/kg IP, day 5",39.6 g
same,body weight change (% wt/wt),"400 mg/kg IP, day 5",−1.7%
same,body weight,"400 mg/kg IP, day 6",40.4 g
same,body weight change (% wt/wt),"400 mg/kg IP, day 6",0.2%
same,body weight,"400 mg/kg IP, day 7",40.5 g
same,body weight change (% wt/wt),"400 mg/kg IP, day 7",0.5%
same,body weight,"400 mg/kg IP, day 8",40.7 g
same,body weight change (% wt/wt),"400 mg/kg IP, day 8",1.0%
same,body weight,"400 mg/kg IP, day 9",39.4 g
same,body weight change (% wt/wt),"400 mg/kg IP, day 9",−2.2%
same,body weight,"400 mg/kg IP, day 10",40 g
same,body weight change (% wt/wt),"400 mg/kg IP, day 10",−0.7%
same,body weight,"400 mg/kg IP, day 11",39.7 g
same,body weight change (% wt/wt),"400 mg/kg IP, day 11",−1.5%
same,body weight,"400 mg/kg IP, day 12",40.1 g
same,body weight change (% wt/wt),"400 mg/kg IP, day 12",−0.5%
same,body weight,"400 mg/kg IP, day 13",40.1 g
same,body weight change (% wt/wt),"400 mg/kg IP, day 13",−0.5%
same,body weight,"400 mg/kg IP, day 14",40.2 g
same,body weight change (% wt/wt),"400 mg/kg IP, day 14",−0.2%
same,body weight,"400 mg/kg IP, day 15",39.3 g
same,body weight change (% wt/wt),"400 mg/kg IP, day 15",−2.5%
same,observations after administration,"mice, IP administration","a decrease in locomotor and piloererection right after administration were observed, these were reversible and full recovery was observed"
